Activity calls are given as the source filed them. No cut-off for these calls is given here.

Assay [1] has as its system B16-F10. The assay can be described thus: Cytotoxicity against mouse B16-F10 cells assessed as cell viability at 300 uM incubated for 48 hrs relative to control. The assay is classed as functional. Conditions: read-out: Activity.
Assay [2] concerns B16-F10. The assay can be described thus: Cytotoxicity against mouse B16-F10 cells assessed as cell viability at 300 uM incubated for 24 hrs relative to control. The class given is functional. As to conditions: read-out: Activity.
Assay [3] deals with B16-F10. The assay can be described thus: Cytotoxicity against mouse B16-F10 cells assessed as cell viability at 300 uM measured immediately relative to control. Conditions: read-out: Activity. The class given is functional.
In assay [4] the test system is B16-F10. The assay can be described thus: Cytotoxicity against mouse B16-F10 cells assessed as cell viability at 30 uM incubated for 48 hrs relative to control. The class given is functional. As to conditions: read-out: Activity.
Assay [5] concerns B16-F10. The assay can be described thus: Cytotoxicity against mouse B16-F10 cells assessed as cell viability at 30 uM incubated for 72 hrs relative to control. The assay is classed as functional. Conditions: read-out: Activity.
Assay [6] concerns B16-F10. Nature of the assay: Cytotoxicity against mouse B16-F10 cells assessed as decrease in cell viability at 3000 uM incubated for 72 hrs. The class given is functional, cell-based.
The subject of assay [7] is B16-F10. Nature of the assay: Cytotoxicity against mouse B16-F10 cells assessed as cell viability at 3000 uM incubated for 48 hrs relative to control. As to conditions: read-out: Activity. The class given is functional.
Assay [8] relates to B16-F10. Nature of the assay: Cytotoxicity against mouse B16-F10 cells assessed as cell viability at 300 uM incubated for 72 hrs relative to control. The class given is functional. As to conditions: for viability at 300 µM: read-out: Activity.
Assay [9] deals with B16-F10. The assay can be described thus: Cytotoxicity against mouse B16-F10 cells assessed as cell viability at 3000 uM incubated for 72 hrs relative to control. The assay is classed as functional. As to conditions: for viability at 3000 µM: read-out: Activity.
For assay [10], the system named is B16-F10. Nature of the assay: Cytotoxicity against mouse B16-F10 cells assessed as cell viability at 3000 uM incubated for 24 hrs relative to control. The assay is classed as functional. Conditions: for viability at 3000 µM: read-out: Activity.
The subject of assay [11] is B16-F10. The assay can be described thus: Cytotoxicity against mouse B16-F10 cells assessed as cell viability at 3 uM incubated for 48 hrs relative to control. The assay is classed as functional. As to conditions: read-out: Activity.
Assay [12] relates to B16-F10. The assay can be described thus: Cytotoxicity against mouse B16-F10 cells assessed as cell viability at 3 to 3000 uM measured after 48 to 72 hrs. The class given is functional, cell-based. As to conditions: dose 3-3000 µM, time 48-72 hrs.

On to `CCCCCCCCCCCC1=NN(C(N)=O)C(O)(C(F)(F)F)C1` (stereo not drawn), for which the figures for the viability at 300 µM in the assay on B16-F10 [1], with B16-F10 [2] and in the assay with B16-F10 [3] were 16%, 17% and 78%, respectively. Besides, the viability at 30 µM in the assay with B16-F10 [4] was found to be 76%; with B16-F10 [5], 51%. Further, in the assay with B16-F10 [6], the result was Active.

Consider `CC1=NN(C(N)=O)C(O)(C(F)(F)F)C1` (stereo not drawn), for which the result with B16-F10 [6] was Active.

In the case of `CCCCCCC1=NN(C(N)=O)C(O)(C(F)(F)F)C1` (stereo not drawn), the viability at 300 µM in the assay with B16-F10 [1] came out at 53%. Also, the viability at 3000 µM in the assay with B16-F10 [7] was found to be 8%; in the assay with B16-F10 [10], 76%. Further, the outcome in the assay on B16-F10 [8] and with B16-F10 [9] was Active.

Consider `CC1=NN(C(N)=S)C(O)(C(F)(F)F)C1` (stereo not drawn), for which the viability at 3000 µM in the assay with B16-F10 [7] amounted to 9%; in the assay with B16-F10 [9] it was 4%. Also, the outcome in the assay with B16-F10 [10] was Active.

Take `CCCCCCCCCCCC1=NN(C(N)=S)C(O)(C(F)(F)F)C1` (stereo not drawn): the viability at 300 µM in the assay on B16-F10 [1] worked out at 18%; in the assay on B16-F10 [8] it was 10%; with B16-F10 [2], 17%. Further, the viability at 30 µM in the assay with B16-F10 [4] came out at 67%. The viability at 3 µM in the assay with B16-F10 [11] came out at 89%.

Take `NC(=S)N1N=CCC1(O)C(F)(F)F` (stereo not drawn): the inhibition result with B16-F10 [12] was “Active”.

In the case of `CCCCCCC1=NN(C(N)=S)C(O)(C(F)(F)F)C1` (stereo not drawn), the viability at 3000 µM worked out at 8% in the assay on B16-F10 [7], 8% in the assay on B16-F10 [9] and 16% in the assay on B16-F10 [10].

Consider `NC(=O)N1N=CCC1(O)C(F)(F)F` (stereo not drawn), for which the viability at 300 µM in the assay with B16-F10 [1] was determined as 43%; with B16-F10 [8], 17%. Moreover, the values for the viability at 3000 µM in the assay with B16-F10 [7] and in the assay on B16-F10 [9] were 17% and 7%, respectively.

Source of the values: ChEMBL document CHEMBL4814037, “Synthesis of pyrazoline fatty chain derivatives and its effects on melanoma cells” (2021).
